Measured values reported in patent US20250221922A1, “ORAL CARE COMPOSITIONS CONTAINING RHAMNOLIPIDS” (Stepan Company, priority 2022, published 2025).

Experiment: Flavor Solubilization (mint flavor oils)
Assay type: physicochemical
Details: premix at the solubilization ratio
Description: The ability of the rhamnolipid mixture to solubilize an oil-based flavorant, such as a mint oil flavorant, was tested. The rhamnolipid composition tested was Sample 3 used above for Porphyromonas gingivalis.
Functionality was determined through a series of dilutions using the rhamnolipid mixture as a potential solubilizer component for flavor oils in the absence of synthetic or other solubilizers. The rhamnolipid composition was compared with polysorbate 20, which is a synthetic solubilizer and the industry standard for oil solubilization for flavors. Common mint flavors, such as Mint #244456 and Mint #244455 from Belle Aire Creations, were used as the flavor oils.
The rhamnolipid composition was added to each of the flavor oils in increasing amounts in order to determine the solubilizer component to flavor oil ratio at which a clear premix was obtained. Once a clear premix was obtained, that premix was then added to deionized water to ensure that the final solution was crystal clear.

polysorbate 20
appearance of final solution of the premix in deionized water: crystal clear
